From EP0666077A1, “ANTI-MRSA COMPOSITION” (MEIJI SEIKA KABUSHIKI KAISHA, priority 1993, dated 1995)
Values after ≈ are worked out from the molar mass of the structure shown.

Legend:
S. aureus (MRSA) PRC-376 = test: Anti-bacterial activity test 1: minimum growth inhibiting concentration (MIC); type: cell-based; conditions: Staphylococcus aureus, strain PRC-376, read-out: Anti-bacterial activity against MRSA MIC
Description: (§1) Minimum growth inhibiting concentration (MIC) of the compound represented by the general formula (I) was determined against some typical MRSA strains.

S. aureus (MRSA) -381 = test: as above; type: cell-based; conditions: Staphylococcus aureus, strain -381 (PRC series), read-out: Anti-bacterial activity against MRSA MIC
Description: as §1

S. aureus (MRSA) -389 = test: as above; type: cell-based; conditions: Staphylococcus aureus, strain -389 (PRC series), read-out: Anti-bacterial activity against MRSA MIC
Description: as §1

S. aureus (MRSA) -385 = test: as above; type: cell-based; conditions: Staphylococcus aureus, strain -385 (PRC series), read-out: Anti-bacterial activity against MRSA MIC
Description: as §1

S. aureus (MRSA) -390 = test: as above; type: cell-based; conditions: Staphylococcus aureus, strain -390 (PRC series), read-out: Anti-bacterial activity against MRSA MIC
Description: as §1

S. aureus (MRSA) -400 = test: as above; type: cell-based; conditions: Staphylococcus aureus, strain -400 (PRC series), read-out: Anti-bacterial activity against MRSA MIC
Description: as §1

S. aureus (MRSA) -395 = test: as above; type: cell-based; conditions: Staphylococcus aureus, strain -395 (PRC series), read-out: Anti-bacterial activity against MRSA MIC
Description: as §1

[1] = tested on: methicillin (DMPPC) resistant Staphylococcus aureus TY-5548; test: Anti-bacterial activity test 2: viable cell count on processed cotton cloth; type: cell-based; conditions: stated for the test as a whole (TY-5548 and TY-5552)
Description: A cotton cloth was subjected to anti-bacterial processing with the compound of the general formula (I). The processing was carried out by applying a solution containing 0.05% of the compound of the general formula (I) and 1% of an organic silicone (fiber finish, Miki Riken) on the cotton cloth with the padding method. A cotton cloth (30 cm x 40 cm) was padded so that the pick-up was 70%, dried with hot air at 110°C for 3 minutes and further cured at 170°C for 1 minute. The anti-bacterial effect of the cotton cloth subjected to the anti-bacterial processing was evaluated with methicillin (DMPPC) resistant Staphylococcus aureus by the following method. The strains were selected on the basis of their resistances, and TY-5548 was selected as a higher resistant strain and TY-5552 as a lower resistant strain.
A 0.2 g sample of the cotton cloth was weighed, placed in a screw capped 30 ml vial and sterilized under pressure. The test strains had been pre-cultured and diluted with nutrient broth for inoculation to 5 - 30 x 10⁵ cells/ml. This culture medium was uniformly inoculated at an amount of 200 µl with a micropipette to the sample cloth, which was then incubated in an incubator at 37°C for 18 hours. […] The colonies grown were counted to calculate the viable cells in the sample piece.

[2] = tested on: TY-5548, higher resistant bacterium; test: Anti-bacterial activity test 5: viable cell count on paint film; type: cell-based, Staphylococcus aureus; conditions: paint film with 0.1% of compound
Excerpt: The compound of the general formula (I) was blended with a paint on the assumption that the paint is used around the medical facilities like in the case of Anti-bacterial activity test 3.
With an oil paint (manufactured by Shinto Toryo) 0.1% of the compound of the general formula (I) was mixed, and an appropriate dilution with thinner was spread over a stainless steel plate having a size of 3 cm x 3 cm and air-dried. The sample on which the film had been formed was sterilized with an alcohol and dried. The sample plate was placed in a glass dish, inoculated with 200 µl of the inoculation medium in Anti-bacterial activity test 3 (TY-5548, higher resistant bacterium) over the surface of the film and incubated at 37°C for 18 hours. After the incubation, 20 ml of a sterile physiological saline buffer was added to the medium to disperse the viable cells into the medium, and then the viable cells on the test piece were calculated in the same manner as in Anti-bacterial activity test 2.

[3] = tested on: methicillin resistant Staphylococcus aureus (TY-5548, higher resistant bacterium); test: Anti-bacterial activity test 4: propagation under cup with dust adsorbing oil on agar plate; type: cell-based; conditions: dust adsorbing oil incorporated with 0.1% of compound; 100 µl in cup; 4°C overnight, then 37°C for 24 hours
Description: Anti-MRSA activity was afforded to a dust adsorbing oil for a dust control mop as described below.
Only non-volatile ingredients were recovered from a dust adsorbing oil for a mop by spraying (manufactured by Yamazaki Sangyo), and incorporated with 0.1% of Compound (V).
A 200 µl of a suspension containing methicillin resistant Staphylococcus aureus (TY-5548, higher resistant bacterium) in a level of 1 x 10⁵ - 10⁴ cells/ml was smeared on a plate count agar, on which stainless steel cups having a diameter of 12 mm were placed to add 100 µl of the oil solution prepared above. The plate thus having inoculated the bacterium was left standing at 4°C overnight and then cultured at 37°C for 24 hours. The propagation of the bacterium under the cup was evaluated.

Row | Compound | MIC (S. aureus (MRSA) PRC-376) | MIC (S. aureus (MRSA) -381) | MIC (S. aureus (MRSA) -389) | MIC (S. aureus (MRSA) -385) | MIC (S. aureus (MRSA) -390) | MIC (S. aureus (MRSA) -400) | MIC (S. aureus (MRSA) -395) | cell reducing rate of the inoculated cells [1] | cell reducing rate of the inoculated cells [2] | propagation of the bacterium under the cup [3]
1 | Clc1ccccc1C(Cn1ccnc1)OCc1ccccc1 (centres unmarked) [o-Cl, H, H, H, 1-[2-benzyloxy-2-(2-chlorophenyl)-ethyl]imidazole] | 100 µg/mL (≈ 320 µM) | 50 µg/mL (≈ 160 µM) | 100 µg/mL (≈ 320 µM) | 100 µg/mL (≈ 320 µM) | 100 µg/mL (≈ 320 µM) | 50 µg/mL (≈ 160 µM) | 100 µg/mL (≈ 320 µM) | – | – | –
2 | Clc1ccccc1COC(Cn1ccnc1)c1ccccc1Cl (centres unmarked) [o-Cl, H, o-Cl, H, 1-[2-(2-chlorobenzyloxy)-2-(2-chlorophenyl)-ethyl]imidazole] | 25 µg/mL (≈ 72 µM) | 25 µg/mL (≈ 72 µM) | 50 µg/mL (≈ 144 µM) | 25 µg/mL (≈ 72 µM) | 25 µg/mL (≈ 72 µM) | 25 µg/mL (≈ 72 µM) | 25 µg/mL (≈ 72 µM) | – | – | –
3 | Clc1ccc(COC(Cn2ccnc2)c2ccccc2Cl)cc1 (centres unmarked) [o-Cl, H, p-Cl, H, 1-[2-(4-chlorobenzyloxy)-2-(2-chlorophenyl)-ethyl]imidazole] | 25 µg/mL (≈ 72 µM) | 12.5 µg/mL (≈ 36 µM) | 25 µg/mL (≈ 72 µM) | 25 µg/mL (≈ 72 µM) | 25 µg/mL (≈ 72 µM) | 12.5 µg/mL (≈ 36 µM) | 25 µg/mL (≈ 72 µM) | ≥ 99.9% | ≥ 99.9% | no propagation was observed
4 | Clc1ccc(C(Cn2ccnc2)OCc2ccccc2Cl)cc1 (centres unmarked) [p-Cl, H, o-Cl, H, 1-[2-(2-chlorobenzyloxy)-2-(4-chlorophenyl)-ethyl]imidazole] | 50 µg/mL (≈ 144 µM) | 25 µg/mL (≈ 72 µM) | 50 µg/mL (≈ 144 µM) | 50 µg/mL (≈ 144 µM) | 50 µg/mL (≈ 144 µM) | 25 µg/mL (≈ 72 µM) | 50 µg/mL (≈ 144 µM) | – | – | –
5 | Clc1ccc(COC(Cn2ccnc2)c2ccc(Cl)cc2)cc1 (centres unmarked) [p-Cl, H, p-Cl, H, 1-[2-(4-chlorobenzyloxy)-2-(4-chlorophenyl)-ethyl]imidazole] | 50 µg/mL (≈ 144 µM) | 25 µg/mL (≈ 72 µM) | 50 µg/mL (≈ 144 µM) | 50 µg/mL (≈ 144 µM) | 50 µg/mL (≈ 144 µM) | 25 µg/mL (≈ 72 µM) | 50 µg/mL (≈ 144 µM) | – | – | –
